Measurements published in patent US20210045385A1, “PYRIDAZINONE-SUBSTITUTED KETOXIMES AS HERBICIDES” (FMC Corporation, priority 2018, published 2021).

Key:
Format in all cases: in vivo
[1] = system: sedge umbrella (small-flower umbrella sedge, Cyperus difformis); experiment: Test D flooded paddy test, visual plant response rating; conditions: 250 g ai/ha, scale 0 to 100 (0 no effect, 100 complete control), 13 to 15 d
How it was run: (§1)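 Greenhouse paddy assay scored on a 0–100 visual scale after 13 to 15 d, where 100 means complete control and a dash marks no result; dosing was into 3 cm floodwater over 2-leaf plants.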

[2] = system: barnyardgrass (Echinochloa crus-galli); experiment: as above; conditions: 250 g ai/ha, scale 0 to 100 (0 no effect, 100 complete control), 13 to 15 d
How it was run: as §1

[3] = system: rice (Oryza sativa); experiment: as above; conditions: 250 g ai/ha, scale 0 to 100 (0 no effect, 100 complete control), 13 to 15 d
How it was run: as §1

[4] = system: duck salad (Heteranthera limosa); experiment: as above; conditions: 250 g ai/ha, scale 0 to 100 (0 no effect, 100 complete control), 13 to 15 d
How it was run: as §1

[5] = system: kochia (Bassia scoparia); experiment: Test C preemergence, visual plant response rating; conditions: Test C, 0 is no effect, 100 is complete control
How it was run: (§2)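 Seeds sown in a loam–sand blend got a directed preemergence soil spray; postemergence plants (2–10 cm, one- to two-leaf stage) were sprayed with compound in a non-phytotoxic solvent plus surfactant. Injury was scored visually against untreated controls after about 10 d in a greenhouse on a 0–100 scale (100 = complete control).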

[6] = system: barnyardgrass (Echinochloa crus-galli); experiment: Test C preemergence, visual plant response rating; conditions: Test C, 0 is no effect, 100 is complete control
How it was run: as §2

[7] = system: pigweed (Amaranthus retroflexus); experiment: Test C preemergence, visual plant response rating; conditions: Test C, 0 is no effect, 100 is complete control
How it was run: as §2

[8] = system: foxtail, giant (giant foxtail, Setaria faberi); experiment: Test C preemergence, visual plant response rating; conditions: Test C, 0 is no effect, 100 is complete control
How it was run: as §2

[9] = system: Italian ryegrass (Lolium mutiflorum); experiment: Test C preemergence, visual plant response rating; conditions: Test C, 0 is no effect, 100 is complete control
How it was run: as §2

[10] = system: ragweed (common ragweed, Ambrosia artemisiifolia); experiment: Test C preemergence, visual plant response rating; conditions: Test C, 0 is no effect, 100 is complete control
How it was run: as §2

[11] = system: kochia (Bassia scoparia); experiment: Test C postemergence, visual plant response rating
How it was run: as §2

[12] = system: blackgrass (Alopecurus myosuroides); experiment: Test C postemergence, visual plant response rating
How it was run: as §2

[13] = system: barnyardgrass (Echinochloa crus-galli); experiment: Test C postemergence, visual plant response rating
How it was run: as §2

[14] = system: pigweed (Amaranthus retroflexus); experiment: Test C postemergence, visual plant response rating
How it was run: as §2

[15] = system: foxtail, giant (giant foxtail, Setaria faberi); experiment: Test C postemergence, visual plant response rating
How it was run: as §2

[16] = system: Italian ryegrass (Lolium mutiflorum); experiment: Test C postemergence, visual plant response rating
How it was run: as §2

[17] = system: ragweed (common ragweed, Ambrosia artemisiifolia); experiment: Test C postemergence, visual plant response rating
How it was run: as §2

[18] = system: corn (Zea mays); experiment: Test C postemergence, visual plant response rating
How it was run: as §2

[19] = system: wheat (Triticum aestivum); experiment: Test C postemergence, visual plant response rating
How it was run: as §2

[20] = system: galium (catchweed bedstraw, Galium aparine); experiment: Test C postemergence, visual plant response rating
How it was run: as §2

[21] = Test C, postemergence, 125 g ai/ha

SMILES	Plant response rating, Sedge, Umbrella (Flood) [1]	Plant response rating, Barnyardgrass (Flood) [2]	Plant response rating, Rice (Flood) [3]	Plant response rating, Ducksalad (Flood) [4]	Kochia plant response rating (0 to 100 scale) ([5]; 31 g ai/ha)	Kochia plant response rating (0 to 100 scale) ([5]; 125 g ai/ha)	Barnyardgrass plant response rating (0 to 100 scale) ([6]; 31 g ai/ha)	Barnyardgrass plant response rating (0 to 100 scale) ([6]; 125 g ai/ha)	Pigweed plant response rating (0 to 100 scale) ([7]; 31 g ai/ha)	Pigweed plant response rating (0 to 100 scale) ([7]; 125 g ai/ha)	Foxtail, Giant plant response rating (0 to 100 scale) ([8]; 31 g ai/ha)	Foxtail, Giant plant response rating (0 to 100 scale) ([8]; 125 g ai/ha)	Ryegrass, Italian plant response rating (0 to 100 scale) ([9]; 31 g ai/ha)	Ryegrass, Italian plant response rating (0 to 100 scale) ([9]; 125 g ai/ha)	Ragweed plant response rating (0 to 100 scale) ([10]; 31 g ai/ha)	Ragweed plant response rating (0 to 100 scale) ([10]; 125 g ai/ha)	Kochia plant response rating (0 to 100 scale) ([11]; Postemergence, 31 g ai/ha)	Kochia plant response rating (0 to 100 scale) [11, 21]	Blackgrass plant response rating (0 to 100 scale) ([12]; Postemergence, 31 g ai/ha)	Blackgrass plant response rating (0 to 100 scale) [12, 21]	other results
C#CCON=C(c1cccc(OCC(F)(F)F)c1)c1c(O)c(C)nn(C)c1=O [Compound 197]	0	0	0	0	0	0	0	0	0	20	0	10	0	20	0	0	0	0	0	30	Barnyardgrass plant response rating (0 to 100 scale) ([13]; Postemergence, 31 g ai/ha): 0; Barnyardgrass plant response rating (0 to 100 scale) [13, 21]: 10; Pigweed plant response rating (0 to 100 scale) ([14]; Postemergence, 31 g ai/ha): 10; Pigweed plant response rating (0 to 100 scale) [14, 21]: 30; Foxtail, Giant plant response rating (0 to 100 scale) ([15]; Postemergence, 31 g ai/ha): 0; Foxtail, Giant plant response rating (0 to 100 scale) [15, 21]: 20; Ryegrass, Italian plant response rating (0 to 100 scale) ([16]; Postemergence, 31 g ai/ha): 0; Ryegrass, Italian plant response rating (0 to 100 scale) [16, 21]: 20; Ragweed plant response rating (0 to 100 scale) ([17]; Postemergence, 31 g ai/ha): 0; Ragweed plant response rating (0 to 100 scale) [17, 21]: 0; Corn plant response rating (0 to 100 scale) ([18]; Postemergence, 31 g ai/ha): 0; Corn plant response rating (0 to 100 scale) [18, 21]: 0; Wheat plant response rating (0 to 100 scale) ([19]; Postemergence, 31 g ai/ha): 0; Wheat plant response rating (0 to 100 scale) [19, 21]: 0; Galium plant response rating (0 to 100 scale) ([20]; Postemergence, 31 g ai/ha): 0; Galium plant response rating (0 to 100 scale) [20, 21]: 30
C=CCO/N=C(\c1c(O)c(C)nn(C)c1=O)c1cccc2cc(Cl)ccc12 [Compound 243]	100	40	45	80	0	0	20	80	70	100	80	100	0	20	30	80	20	20	30	50	Barnyardgrass plant response rating (0 to 100 scale) ([13]; Postemergence, 31 g ai/ha): 70; Barnyardgrass plant response rating (0 to 100 scale) [13, 21]: 80; Pigweed plant response rating (0 to 100 scale) ([14]; Postemergence, 31 g ai/ha): 80; Pigweed plant response rating (0 to 100 scale) [14, 21]: 90; Foxtail, Giant plant response rating (0 to 100 scale) ([15]; Postemergence, 31 g ai/ha): 70; Foxtail, Giant plant response rating (0 to 100 scale) [15, 21]: 80; Ryegrass, Italian plant response rating (0 to 100 scale) ([16]; Postemergence, 31 g ai/ha): 10; Ryegrass, Italian plant response rating (0 to 100 scale) [16, 21]: 40; Ragweed plant response rating (0 to 100 scale) ([17]; Postemergence, 31 g ai/ha): 60; Ragweed plant response rating (0 to 100 scale) [17, 21]: 90; Corn plant response rating (0 to 100 scale) ([18]; Postemergence, 31 g ai/ha): 0; Corn plant response rating (0 to 100 scale) [18, 21]: 30; Wheat plant response rating (0 to 100 scale) ([19]; Postemergence, 31 g ai/ha): 0; Wheat plant response rating (0 to 100 scale) [19, 21]: 0; Galium plant response rating (0 to 100 scale) ([20]; Postemergence, 31 g ai/ha): 80; Galium plant response rating (0 to 100 scale) [20, 21]: 90
C#CCON=C(c1cccc(OC(F)F)c1)c1c(O)c(C)nn(C)c1=O [Compound 201]	0	0	0	0	0	0	0	10	0	0	10	30	10	80	0	20	40	70	10	50	Barnyardgrass plant response rating (0 to 100 scale) ([13]; Postemergence, 31 g ai/ha): 10; Barnyardgrass plant response rating (0 to 100 scale) [13, 21]: 40; Pigweed plant response rating (0 to 100 scale) ([14]; Postemergence, 31 g ai/ha): 20; Pigweed plant response rating (0 to 100 scale) [14, 21]: 70; Foxtail, Giant plant response rating (0 to 100 scale) ([15]; Postemergence, 31 g ai/ha): 20; Foxtail, Giant plant response rating (0 to 100 scale) [15, 21]: 40; Ryegrass, Italian plant response rating (0 to 100 scale) ([16]; Postemergence, 31 g ai/ha): 30; Ryegrass, Italian plant response rating (0 to 100 scale) [16, 21]: 60; Ragweed plant response rating (0 to 100 scale) ([17]; Postemergence, 31 g ai/ha): 10; Ragweed plant response rating (0 to 100 scale) [17, 21]: 30; Corn plant response rating (0 to 100 scale) ([18]; Postemergence, 31 g ai/ha): 0; Corn plant response rating (0 to 100 scale) [18, 21]: 0; Wheat plant response rating (0 to 100 scale) ([19]; Postemergence, 31 g ai/ha): 0; Wheat plant response rating (0 to 100 scale) [19, 21]: 40; Galium plant response rating (0 to 100 scale) ([20]; Postemergence, 31 g ai/ha): 50; Galium plant response rating (0 to 100 scale) [20, 21]: 80
